Source: US20070254891A1, “Crystalline forms of 4-(2-fluorophenyl)-6-methyl-2-(piperazin-1-yl)thieno[2,3-d]pyrimidine” (Dynogen Pharmaceuticals, Inc., priority 2006, published 2007)

What was measured:
[1] = Storage at 40° C./75% RH under ambient light (XRPD, HPLC purity, colour); assay type: physicochemical
Experimental: Purity analysis was performed on an Agilent HP1100 system equipped with a diode array detector and using Chemstation V9 software. Gradient, Reverse Phase methods (duration approximately 40 minutes) were used in a HPLC1 system. A Thermo-Electron Corporation HyPurity C18 5 um 150×4.6 mm column was used at 25° C. Test samples were made-up of 0.2 mg/ml of the compound in acetonitrile:water (1:1 v/v). 10 μl of sample was injected into the column. The flow rate through the column was 1 ml/min and the detection wavelength, bandwidth was 254,8 nm. Phase A was 0.1% phosphoric acid in water and Phase B was 0.1% phosphoric acid in acetonitrile. The mobile phase timetable is shown below in Table 2.
Form I was characterized by pKa, LogP, LogPion and LogD determination and prediction, XRPD before and after storage at 40° C./75% RH for 4 weeks, PLM, DSC and TGA, ^1HNMR, solubility in water with pH measurement, HPLC purity before and after storage at 40° C./75% RH for 4 weeks, water content, GVS with XRPD and purity analysis after measurement, and VT-XRPD.
Form II has been characterized using XRPD before and after storage at 40° C./75% RH for 3 weeks, PLM, DSC and TGA, Solubility in water with pH measurement, HPLC purity, Water content, GVS with XRPD analysis after measurement, and VT-XRPD.

[2] = Aqueous solubility with pH measurement; assay type: physicochemical; settings: water, 25° C., 24 hours; hydrochloride
Experimental: Each sample was suspended in 0.25 ml of solvent (water) in an amount effective to produce a maximum final concentration of greater than or equal to about 10 mg/ml of the parent free form of the compound (i.e., adding excess sample to account for the weight of the salt). […] The filtrate was then diluted down 101 times.

Cc1cc2c(-c3ccccc3F)nc(N3CCNCC3)nc2s1.Cl [Form II, 4-(2-fluorophenyl)-6-methyl-2-(piperazin-1-yl)thieno[2,3-d]pyrimidine hydrochloride]
Colour of material surface after storage ([1]; 3 weeks at 40° C./75% RH, ambient light): had not changed color | XRPD after storage ([1]; 40° C./75% RH for 4 days, samples from acetone and acetonitrile): remained unchanged | XRPD pattern after storage ([1]; 40° C./75% RH for three weeks): unchanged | HPLC purity after storage ([1]; three weeks at 40° C./75% RH): 100% | Aqueous solubility (free base equivalent) [2]: 1.6 mg/mL | pH of the solubility sample [2]: 6.39
